Experimental data from ChEMBL document CHEMBL4033662, “The computer-aided discovery of novel family of the 5-HT6 serotonin receptor ligands among derivatives of 4-benzyl-1,3,5-triazine” (Eur J Med Chem, 2017).

Columns and labels:
[1] = molecular target: 5-hydroxytryptamine receptor 6 (Homo sapiens, UniProt P50406); assay: Displacement of [3H]-LSD from human 5-HT6R expressed in HEK293 cells; assay type: cell-based
Rattus norvegicus = assay: Antidepressant activity in Wistar rat assessed as decrease in immobility time at 0.3 mg/kg, ip administered 60 mins prior to testing measured for 5 mins by forced swim test; assay type: functional; design: scale not given: the % may be the effect or the level left

Chain of 5-hydroxytryptamine receptor 6 (P50406 whole entry): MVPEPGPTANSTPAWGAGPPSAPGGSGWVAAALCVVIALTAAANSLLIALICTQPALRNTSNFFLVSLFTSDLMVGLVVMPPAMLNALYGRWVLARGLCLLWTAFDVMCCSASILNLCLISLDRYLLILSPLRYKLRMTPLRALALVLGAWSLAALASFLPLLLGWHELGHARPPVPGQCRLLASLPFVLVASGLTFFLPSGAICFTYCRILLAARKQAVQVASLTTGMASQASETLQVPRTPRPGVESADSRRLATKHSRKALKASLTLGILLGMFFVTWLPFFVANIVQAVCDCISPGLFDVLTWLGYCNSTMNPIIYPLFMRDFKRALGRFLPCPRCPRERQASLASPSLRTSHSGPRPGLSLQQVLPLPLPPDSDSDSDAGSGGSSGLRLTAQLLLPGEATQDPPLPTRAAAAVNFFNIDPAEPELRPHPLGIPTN

| Ki [1] | Structure (SMILES) | Activity (Rattus norvegicus) |
| --- | --- | --- |
| 64 nM | CN1CCN(c2nc(N)nc(Cc3cccc(F)c3)n2)CC1 | – |
| 20 nM | CN1CCN(c2nc(N)nc(Cc3cccc4ccccc34)n2)CC1 | – |
| 56 nM | CN1CCN(c2nc(N)nc(Cc3ccccc3Cl)n2)CC1 | – |
| 88 nM | CN1CCN(c2nc(N)nc(Cc3ccccc3F)n2)CC1 | – |
| 22 nM | CN1CCN(c2nc(N)nc(Cc3c[nH]c4ccccc34)n2)CC1 | 37% |
| 100 nM | CN1CCN(c2nc(N)nc(Cc3ccc(F)cc3)n2)CC1 | – |
| 95 nM | CN1CCN(c2nc(N)nc(Cc3ccccc3)n2)CC1 | – |
| 80 nM | Cc1ccccc1Cc1nc(N)nc(N2CCN(C)CC2)n1 | – |
| 193 nM | COc1ccccc1Cc1nc(N)nc(N2CCN(C)CC2)n1 | – |
| 28 nM | CN1CCN(c2nc(N)nc(Cc3cccc(Cl)c3)n2)CC1 | 29% |

The remaining lines, values behind:

| Structure (SMILES) | Ki [1] | Activity (Rattus norvegicus) |
| --- | --- | --- |
| COc1cccc(Cc2nc(N)nc(N3CCN(C)CC3)n2)c1 | 158 nM | – |
| CN1CCN(c2nc(N)nc(Cc3cccs3)n2)CC1 | 305 nM | – |
| Cc1ccc(Cc2nc(N)nc(N3CCN(C)CC3)n2)cc1 | 64 nM | – |
| Cc1cccc(Cc2nc(N)nc(N3CCN(C)CC3)n2)c1 | – | 30% |
| CN1CCN(c2nc(N)nc(Cc3ccncc3)n2)CC1 | 1830 nM | – |
| COc1ccc(Cc2nc(N)nc(N3CCN(C)CC3)n2)cc1 | 440 nM | – |
| CN1CCN(c2nc(N)nc(Cc3ccc(Cl)c(Cl)c3)n2)CC1 | 32 nM | – |
